Source: the NIST ThermoML archive (doi:10.1021/je900785z)
± gives the expanded uncertainty stated by the source.

Details: 298.15 K; 101.33 kPa; Liquid

mass density [kg/m3] | Compound
687.757 ± 0.84 | CC(C)CC(C)(C)C [2,2,4-trimethylpentane]
726.357 ± 1.2 | CCCCCCCCCC [decane]
679.627 ± 0.85 | CCCCCCC [heptane]
714.064 ± 1.3 | CCCCCCCCC [nonane]
698.636 ± 1.3 | CCCCCCCC [octane]

Same assay, conditions: Crystal; visual observation

Normal melting temperature [°C] | Compound
69.06 ± 0.39 | O=C1CCCCCN1 [1-aza-2-cycloheptanone]
